# Assay results reported in patent US12213992B2, “Iron containing composition and use thereof” (RENAPHARMA AB, priority 2018, dated 2025).
# Experiments:
# [1] = Non-heme iron levels in liver; format: in vivo, CD1 mice; details: anaemic mice, 20 mM Fe, 100 μL, 10 days
# Description: (§1) After the last dose, the mice were provided with water ad libitum for 18 hours before sacrifice and collection of tissues. Tissues were stored at −70° C. until subjection to various toxicological investigations. […] Tests were made with respect to the following parameters: • 1. Lipid peroxidation (MDA measurement) • 2. GSH levels • 3. Catalase levels • 4. Non-heme iron levels • 5. Plasma ferritin levels Methodology
# Non-heme iron was assayed according to the method of Foy et al. (Analytical Biochem. 1967; 18:559-563) as modified by Simpson & Peters (Br J Nutr. 1990; 63:79-89). Liver tissue was washed in ice-cold PBS, weighted (70 mg), and homogenized (1:5 w:v) in 0.15M NaCl-HEPES buffer (pH 7.4) with a glass Dounce homogenizer. 100 μl of the resulted extracted was boiled with 200 μl of TCA-sodium pyrophosphate and boil for 10 min, centrifuged at 10,000 RPM and collected the supernatant, the boiled extraction and centrifugation was repeated twice. From the total supernatant collection, 200 μL was mixed with 100 μL 4 of 0.23M ascorbic acid, 80 µL of 10 mM ferrozine and 420 μL of 2.0 M sodium-buffer acetate (pH 4.8). All samples were measured at 562 nm against the blank and compare with standard values.
# [2] = Tissue distribution of 59Fe; format: in vivo, mouse; details: iron deficient mice, 4 hours after oral gavage, compared with the other iron source
# Description: Anaemic mice were generated using the method of Latunde-Dada et al, J. Nutr. 144 (2014) 1896-902. Mice (3 weeks old) were split into 4 groups (n=6), two groups were fed with normal iron diet (48 mg iron/Kg) and the other two with iron deficient diet (3 mg iron/kg) for 6 weeks. Before the experiment haemoglobin levels were measured to confirm the differences between the normal group and the iron deficient groups. The day before the treatment with ^59Fe labelled iron, all the mice were deprived of food overnight with water ad libitum. Normal (non anaemic) and iron deficient (anaemic) mice were gavaged with either 100 μl of the formulation of Example 4, or with ^59FeSO4-ascorbic acid (1:1) ([Fe]=21 mM). Four hours after the oral gavage the mice were sacrificed and tissues collected.
# The tissues from the ^59Fe uptake study were used for an investigation of iron distribution (FIGS. 4-7). In the normal animals the majority of the iron is in the “carcase” (probably in blood and lymph).
# [3] = tested on: ferritin; assay: Plasma ferritin levels (mouse ELISA kit); format: in vivo, CD1 mice; details: anaemic mice, 20 mM Fe, 100 μL, 10 days
# Description: as §1
# In this assay, the ferritin present in plasma samples reacts with the anti-Ferritin antibodies which have been adsorbed to the surface of polystyrene microliter wells. The assay was performed with a kit provided by Abcam company (Catalogue number, ab157713 Ferritin, mouse ELISA kit). The plasma samples were diluted 1:40 with the assay diluent provided in the kit. The amount of enzyme bound in the complex was measured by the addition of a chromo-genic substrate, 3,3′,5,5′-tetramethylbenzidine (TMB). The colorimetric reaction was measured at 450 nm in a plate reader. The quantity of ferritin in the test sample was interpolated from the standard curve with known concentrations of ferritin.
# [4] = tested on: malondialdehyde (MDA); assay: Toxicity study: lipid peroxidation (MDA measurement); format: in vivo, CD1 mice; details: anaemic mice, 20 mM Fe, 100 μL, 10 days; ANOVA one-way test
# Description: as §1
# (§2) The collection of the duodenum was achieved by taking the first 5 cm after the pylorus. The section was opened transversally, and the mucosa was removed using a glass slide.
# Lipid peroxidation was measured by the detection of the endpoint product malondialdehyde (MDA), using the MDA microplate assay kit from Cohesion Biosciences (catalog number CAK1011). Liver tissue (70 mg) or duodenal mucosa (20 mg) were weighed and homogenized in assay buffer according with instructions of the kit manufacturer. All the samples were kept in ice during the assay. The dye reagent (Thiobarbituric acid) was brought at room temperature 30 min before the assay performance. […] The protein concentration of the extracts was analysed with the Bradford assay protocol and the MDA values were normalized against protein content.
# [5] = tested on: catalase; assay: Toxicity study: catalase levels; format: in vivo, CD1 mice; details: anaemic mice, 20 mM Fe, 100 μL, 10 days; ANOVA one-way test
# Description: as §1, §2
# The activity of catalase enzyme was detected by using a Catalase Kit (Arbor assay company, Catalogue number K033-H1). Mice tissues were rinsed in PBS to take out the excess of blood and weighed (100 mg of liver or 20 mg duodenal mucosa). The procedure of sample preparation and assay was performed according to manufacturing instructions. The tissue samples were homogenized in ice-cold assay medium with a glass homogenizer, centrifuged at 10,000×g for 15 min at 4 degrees. The supernatant was collected to continue with the assay. A standard with catalase-hydrogen peroxide enzyme was measured within 30 min after reconstitution. The produced colour reaction was read at 450 nm using a plate reader.
# [6] = tested on: anaemic mice; assay: Haemoglobin levels in anaemic mice after treatment with oral iron (haemoglobin repletion study); format: in vivo, CD1 mice; details: 10 days of gavage (Fe; 21 mM, 100 μl)
# Description: The procedure for this study was adopted from well established techniques (Kajarabille et al, Brit. J. Nutrition, 117 (2017) 767-774) (FIG. 8). There was a change of haemoglobin levels between the anaemic (12.8±2.4 g/dL) and normal animals (19.55±2.4 g/dL) (FIG. 9).
# Male CD1 mice (3 weeks of age) were made Fe deficient by feeding a low-iron diet of 3-mg Fe/Kg diet based on the modified AIN-76A purified rodent diet (TD.80396; Harlan Teklad) for 3 weeks (i.e., until they were 6 weeks of age). Another group of mice were placed on a normal iron-sufficient diet (48-mg Fe/Kg diet) (TD.80394; Harlan Teklad) to serve as control. The diets were of identical composition except that the iron-sufficient diet contained iron added as ferric citrate. After this, blood was withdrawn from the tails to determine the initial Hb concentrations of the mice. The Fe-deficient mice were then divided into the treatment groups based on similar Hb concentrations. […] After the 10 days, the mice were weighed, anaesthetized, and blood samples were taken for Hb, serum iron, and serum ferritin determinations. The mice were then killed by anaesthesia followed by neck dislocation, and the spleen, duodenum, kidney, and liver samples were excised, snap frozen in liquid nitrogen, and stored at −70° C. until further analysis.
# [7] = tested on: reduced GSH; assay: Toxicity study: reduced GSH levels (ELISA); format: in vivo, CD1 mice; details: anaemic mice, 20 mM Fe, 100 μL, 10 days
# Description: as §1, §2
# The assay was performed according to manufacturer's instructions.
smiles,measurement,setting,value
O=S(=O)([O-])[O-].[Fe+2] [FeSO4],"non-heme iron levels in liver, Mean",[1],0.3637 nmol/mg
same,Fe distribution in the liver,[2],greater distribution of Fe in the liver
same,plasma ferritin levels,[3],lower than that of normal mice
same,concentration of malondialdehyde (MDA) in duodenal mucosa,[4],no statistical differences between the groups
same,concentration of malondialdehyde (MDA) in liver,[4],no statistical differences between the groups
same,catalase activity in duodenal mucosa,[5],no statistical differences between the groups
same,catalase activity in liver,[5],no statistical differences between the groups
same,haemoglobin levels,[6],increased the haemoglobin levels in anaemic mice to those of normal mice
same,concentration of reduced GSH in liver,[7]; ANOVA one-way test,no statistical differences between the groups
same,concentration of reduced GSH in duodenal mucosa,"[7]; P≤0.05, ANOVA one-way test",higher levels of GSH in duodenum in comparison with the untreated group
